Test results taken from publication doi:10.1101/2021.10.07.463234v2 (biorxiv, 2021).
Structures can show the parent of a compound that is named as a salt.

target: SARS-CoV-2 Mac1 (Severe acute respiratory syndrome coronavirus 2, UniProt P0DTD1); experiment: biochemical; settings: 100 µM; inhibitor

Structure (SMILES)	%inhibition
CCN(C)C(=O)Oc1cccc([C@H](C)N(C)C)c1 [Rivastigmine Tartrate]	0.5521%
CCN(C)C(=O)Oc1cccc([C@H](C)N(C)C)c1 [Rivastigmine]	0%
CN(CCOc1ccc(CC2SC(=O)NC2=O)cc1)c1ccccn1 (centres unmarked) [Rosiglitazone HCl]	0%
CN(CCOc1ccc(CC2SC(=O)NC2=O)cc1)c1ccccn1 (centres unmarked) [Rosiglitazone maleate]	9.239%
CN(CCOc1ccc(CC2SC(=O)NC2=O)cc1)c1ccccn1 (centres unmarked) [Rosiglitazone]	18.44%
CC(C)c1nc(N(C)S(C)(=O)=O)nc(-c2ccc(F)cc2)c1/C=C/[C@@H](O)C[C@@H](O)CC(=O)O [Rosuvastatin Calcium]	0%
CC(C)c1nc(N(C)S(C)(=O)=O)nc(-c2ccc(F)cc2)c1/C=C/[C@@H](O)C[C@@H](O)CC(=O)O [Rosuvastatin]	7.223%
N#CC[C@H](C1CCCC1)n1cc(-c2ncnc3[nH]ccc23)cn1 [Ruxolitinib (INCB018424)]	0%
N#CC[C@H](C1CCCC1)n1cc(-c2ncnc3[nH]ccc23)cn1 [S-Ruxolitinib (INCB018424)]	18.93%
C[C@H](NCc1ccc(OCc2cccc(F)c2)cc1)C(N)=O [Safinamide Mesylate]	9.23%
CC(C)(C)NCC(O)c1ccc(O)c(CO)c1 (centres unmarked) [Salbutamol Sulfate]	6.444%
CC(C)(C)NCC(O)c1ccc(O)c(CO)c1 (centres unmarked) [Salbutamol]	0%
O=C(O)c1ccccc1O [Salicylic acid]	1.324%

same assay, conditions: read-out: %inhibition

Structure (SMILES)	inhibition at 100 µM
CO[C@H]1/C=C/O[C@@]2(C)Oc3c(C)c(O)c4c(O)c(c5c(nc6cc(C)ccn65)c4c3C2=O)NC(=O)/C(C)=C\C=C\[C@H](C)[C@H](O)[C@@H](C)[C@@H](O)[C@@H](C)[C@H](OC(C)=O)[C@@H]1C [Rifaximin]	22.3%
COc1cc(OC)c(/C=C/S(=O)(=O)Cc2ccc(OC)c(NCC(=O)O)c2)c(OC)c1 [Rigosertib (ON-01910)]	0.0877%
Cc1cc(/C=C/C#N)cc(C)c1Nc1ccnc(Nc2ccc(C#N)cc2)n1 [Rilpivirine]	7.83%
Nc1nc2ccc(OC(F)(F)F)cc2s1 [Riluzole]	0%
CC(N)[C@]12C[C@H]3C[C@H](C[C@H](C3)C1)C2 (some centres unmarked) [Rimantadine Hydrochloride]	4.71%
CC(N)C12CC3CC(CC(C3)C1)C2 (centres unmarked) [Rimantadine]	28.1%
Cc1c(C(=O)NN2CCCCC2)nn(-c2ccc(Cl)cc2Cl)c1-c1ccc(Cl)cc1 [Rimonabant]	3.4%
COC(=O)N(C)c1c(N)nc(-c2nn(Cc3ccccc3F)c3ncccc23)nc1N [Riociguat (BAY 63-2521)]	21.9%
C[C@H]1CNCCCN1S(=O)(=O)c1cccc2cncc(F)c12 [Ripasudil (K-115) hydrochloride dihydrate]	23.9%
O=P(O)(O)C(O)(Cc1cccnc1)P(=O)(O)O [Risedronate Sodium]	8.32%
CC(C)c1nc(CN(C)C(=O)N[C@H](C(=O)N[C@@H](Cc2ccccc2)C[C@H](O)[C@H](Cc2ccccc2)NC(=O)OCc2cncs2)C(C)C)cs1 [Ritonavir]	0%
O=C(NC[C@H]1CN(c2ccc(N3CCOCC3=O)cc2)C(=O)O1)c1ccc(Cl)s1 [Rivaroxaban]	4.28%
CN(C)CCc1c[nH]c2ccc(Cn3cncn3)cc12 [Rizatriptan Benzoate]	0%
C=CC(=O)Nc1cccc(Nc2nc(Nc3ccc(N4CCN(C(C)=O)CC4)cc3OC)ncc2C(F)(F)F)c1 [Rociletinib (CO-1686, AVL-301)]	0%
C=CC[N+]1([C@H]2C[C@H]3[C@@H]4CC[C@H]5C[C@H](O)[C@@H](N6CCOCC6)C[C@]5(C)[C@H]4CC[C@]3(C)[C@H]2OC(C)=O)CCCC1 [Rocuronium Bromide]	0%
CS(=O)(=O)c1ccc(C2=C(c3ccccc3)C(=O)OC2)cc1 [Rofecoxib]	12.8%
O=C(Nc1c(Cl)cncc1Cl)c1ccc(OC(F)F)c(OCC2CC2)c1 [Roflumilast]	5.88%
COc1ccc(C2CNC(=O)C2)cc1OC1CCCC1 (centres unmarked) [Rolipram]	0%
Cn1c([N+](=O)[O-])cnc1COC(N)=O [Ronidazole]	0%
CCCN(CCC)CCc1cccc2c1CC(=O)N2 [Ropinirole HCl]	0%

Structure (SMILES)	inhibition at 100 µM
CCCN1CCCC[C@H]1C(=O)Nc1c(C)cccc1C [Ropivacaine]	0%
CCCN(CCc1cccs1)[C@H]1CCc2c(O)cccc2C1 [Rotigotine]	6.99%
Cc1nc(C(=O)NCC(=O)O)c(O)c2ccc(Oc3ccccc3)cc12 [Roxadustat (FG-4592)]	14.8%
CC[C@H]1OC(=O)[C@H](C)[C@@H](O[C@H]2C[C@@](C)(OC)[C@@H](O)[C@H](C)O2)[C@H](C)[C@@H](O[C@@H]2O[C@H](C)C[C@H](N(C)C)[C@H]2O)[C@](C)(O)C[C@@H](C)/C(=N\OCOCCOC)[C@H](C)[C@@H](O)[C@]1(C)O [Roxithromycin]	0.445%
CNCc1ccc(-c2[nH]c3cc(F)cc4c3c2CCNC4=O)cc1 [Rucaparib (AG-014699,PF-01367338) phosphate]	10.4%
NC(=O)c1cn(Cc2c(F)cccc2F)nn1 [Rufinamide]	25.2%
Cc1cncc(CN2CCC(=C3c4ccc(Cl)cc4CCc4cccnc43)CC2)c1 [Rupatadine Fumarate]	24.3%
C[C@@H]1O[C@@H](OC[C@H]2O[C@@H](Oc3c(-c4ccc(O)c(O)c4)oc4cc(O)cc(O)c4c3=O)[C@H](O)[C@@H](O)[C@@H]2O)[C@H](O)[C@H](O)[C@H]1O [Rutin]	3.42%
COc1ccc([C@H]2CNC(=O)C2)cc1OC1CCCC1 [S- (+)-Rolipram]	0%
O=C1NS(=O)(=O)c2ccccc21 [Saccharin]	0%
C[C@H](NCc1ccc(OCc2cccc(F)c2)cc1)C(N)=O [Safinamide]	15%
CC(C)=CCC/C(C)=C/CC/C(C)=C/CSc1ccccc1C(=O)O [Salirasib]	0%
OCc1cc(C(O)CNCCCCCCOCCCCc2ccccc2)ccc1O (centres unmarked) [Salmeterol]	3.12%
CN1CCN(CCOc2cc(OC3CCOCC3)c3c(Nc4c(Cl)ccc5c4OCO5)ncnc3c2)CC1 [Saracatinib (AZD0530)]	32.3%
O=C(O)c1cn(-c2ccc(F)cc2)c2cc(N3CCNCC3)c(F)cc2c1=O [Sarafloxacin HCl]	15.7%
COc1cccc(CCc2ccccc2OCC(CN(C)C)OC(=O)CCC(=O)O)c1 (centres unmarked) [Sarpogrelate hydrochloride]	0%
N#C[C@@H]1C[C@@H]2C[C@@H]2N1C(=O)[C@@H](N)C12CC3CC(CC(O)(C3)C1)C2 [Saxagliptin hydrate]	8.79%
N#C[C@@H]1C[C@H]2C[C@H]2N1C(=O)[C@@H](N)[C@@]12C[C@@H]3C[C@@H](C[C@@](O)(C3)C1)C2 [Saxagliptin]	12.8%
CN1[C@@H]2C[C@@H](OC(=O)[C@H](CO)c3ccccc3)C[C@H]1[C@@H]1O[C@@H]12 [Scopolamine HBr]	0%
Cc1ncc([N+](=O)[O-])n1CC(C)O (centres unmarked) [Secnidazole]	34.4%

Structure (SMILES)	inhibition at 100 µM
CO[C@H]1C[C@H](O[C@@H]2/C(C)=C/C[C@@H]3C[C@@H](C[C@]4(CC[C@H](C)[C@@H](C5CCCCC5)O4)O3)OC(=O)[C@@H]3C=C(C)/C(=N/O)[C@H]4OC/C(=C\C=C\[C@@H]2C)[C@]43O)O[C@@H](C)[C@@H]1O [Selamectin]	13.4%
CC(C)N(CCCCOCC(=O)NS(C)(=O)=O)c1cnc(-c2ccccc2)c(-c2ccccc2)n1 [Selexipag]	0%
O=C(/C=C\n1cnc(-c2cc(C(F)(F)F)cc(C(F)(F)F)c2)n1)NNc1cnccn1 [Selinexor (KPT-330)]	0%
NC(=O)C1CCCc2c1[nH]c1ccc(Cl)cc21 (centres unmarked) [Selisistat (EX 527)]	15.7%
Cn1cnc2c(F)c(Nc3ccc(Br)cc3Cl)c(C(=O)NOCCO)cc21 [Selumetinib (AZD6244)]	24.4%
CC(C)[C@H](O)C(=O)N[C@@H](C)C(=O)N[C@@H]1C(=O)N(C)CCc2ccccc21 [Semagacestat (LY450139)]	0%
NCCc1c[nH]c2ccc(O)cc12 [Serotonin HCl]	8.8%
Clc1ccc(C(Cn2ccnc2)OCc2csc3c(Cl)cccc23)c(Cl)c1 (centres unmarked) [Sertaconazole nitrate]	0%
CCCc1nn(C)c2c(=O)[nH]c(-c3cc(S(=O)(=O)N4CCN(C)CC4)ccc3OCC)nc12 [Sildenafil Citrate]	0%
COc1cc([C@H]2Oc3cc([C@H]4Oc5cc(O)cc(O)c5C(=O)[C@@H]4O)ccc3O[C@@H]2CO)ccc1O [Silibinin]	0%
O=C(O)c1ccc2c(c1)nc(Nc1cccc(Cl)c1)c1ccncc12 [Silmitasertib (CX-4945)]	0%
C[C@H](Cc1cc2c(c(C(N)=O)c1)N(CCCO)CC2)NCCOc1ccccc1OCC(F)(F)F [Silodosin]	0%
COc1ccc2c(O[C@@H]3C[C@H]4C(=O)N[C@]5(C(=O)NS(=O)(=O)C6CC6)C[C@H]5/C=C\CCCCN(C)C(=O)[C@@H]4C3)cc(-c3nc(C(C)C)cs3)nc2c1C [Simeprevir]	11.4%
CCC(C)(C)C(=O)O[C@H]1C[C@@H](C)C=C2C=C[C@H](C)[C@H](CC[C@@H]3C[C@@H](O)CC(=O)O3)[C@H]21 [Simvastatin]	14%
CN[C@@H]1[C@@H](O)[C@@H](O[C@@H]2[C@@H](O)[C@H](O[C@H]3OC(CN)=CC[C@H]3N)[C@@H](N)C[C@H]2N)OC[C@]1(C)O [Sisomicin sulfate]	0%
N[C@@H]1CN(c2c(F)cc3c(=O)c(C(=O)O)cn([C@@H]4C[C@@H]4F)c3c2Cl)CC12CC2 [Sitafloxacin Hydrate]	5.2%
N[C@@H](CC(=O)N1CCn2c(nnc2C(F)(F)F)C1)Cc1cc(F)c(F)cc1F [Sitagliptin]	0%
CC(C)(C)C(=O)Oc1ccc(S(=O)(=O)Nc2ccccc2C(=O)NCC(=O)O)cc1 [Sivelestat (ONO-5046)]	0%
